# Measured values: patent US20250205252A1, “7-KETOLITHOCHOLIC ACID FOR USE IN THE TREATMENT OF GUT DYSBIOSIS AND AS A PREBIOTIC” (NZP UK Limited, priority 2022, published 2025)
# Where two headings read alike, the source gives them in different places.
# What was measured:
# [1] = type: in vivo, CD-1 mice
# Protocol: The study design: • CTRL 1 Mice on normal diet for 60 days (5 mice) • CTRL 2 Mice on normal diet with 7KLCA at 10 mg/kg for 60 days (5mice) • CTRL 3 Mice on normal diet for 30 days, then 30 days on a high glucose diet (5 mice) • Treated Mice on normal diet for 30 days, then 30 days on a high glucose diet with 7KLCA throughout the study (5 mice)
# Standard diet (10.6% fat J/J, 29.0% protein J/J and 60.4% carbohydrate J/J). High glucose diet (10.5% fat J/J, 16.4% protein J/J and 73.1% carbohydrate J/J). For all experimental group, free accesses to tap water The animals were kept in group of 5 animals/sex/group/cage in Plexiglas cages.
# Experiments were carried out in 8-12-week-old male CD-1 mice according to the guidelines for the safe use and care of experimental animals in accordance with the Italian D.L. no. 116 of 27 Jan. 1992 and associated guidelines in the European Communities Council (86/609/ECC and 2010/63/UE) including the 3Rs concept (Kilkenny et al, 2010; McGrath et al, 2015). Animals were housed with ad libitum access to food and water and maintained on a 12-hour light/dark cycle. Experimental study groups were randomized and blinded. The animals in the control groups were handled in an identical manner to the treated group using the respective vehicle and the same volume of administration. Tested item formulation or vehicle was administered by oral gavage. The body weight was recorded once before the assignment to the experimental groups, on the first day of administration, and then weekly during the treatment.
# The dose of 7-KLCA used in this study was 10 mg/kg/day. The vehicle used was DMSO in saline solution (NaCl 0.9%), 1/3 w/w. 7-KLCA was solubilised in DMSO (1 part w/w) and then resuspended in saline solution (3 parts w/w). This solution (200 μl/mouse) was prepared freshly every day and was kept under magnetic stirring during the daily administration.
# The body weight was recorded once before the assignment to the experimental groups, on the first day of administration, and then weekly.
# General clinical observations were performed at least once a day, at the same hour. The health condition of the animals was recorded.
# After overnight fasting, blood of the animals was collected in serum separator tubes. FIGS. 10 and 13 show the change in body weight for the mice in the study.
# [2] = system: Streptococcus spp. (Strp); assay: 3-stage gut model, flow-FISH enumeration, Streptococcus; conditions: FIG. 6
# [3] = system: Bifidobacterium spp.; assay: 3-stage gut model, bacterial composition by 16s rRNA sequencing, Bifidobacterium; conditions: after treatment, V3 (distal colon); lower than the baseline
# [4] = system: Bacteroides-Prevotella (BAC303); assay: 3-stage gut model, flow-FISH enumeration, Bacteroides-Prevotella; conditions: 400 mg/day, 512 h; for Bacteroides-Prevotella (BAC303) population numbers after treatment: transverse region (V2)
# [5] = system: bacterial metabolites lactate, acetate, butyrate, propionate and valerate; assay: 3-stage gut model, bacterial metabolite quantification by GC-MS; type: cell-based
# [6] = system: Faecalibacterium prausnitzii (Fprau655); assay: 3-stage gut model, flow-FISH enumeration, Faecalibacterium prausnitzii
# [7] = system: Bifidobacterium species; assay: Batch culture fermentation of faecal slurry, flow-FISH enumeration (BIF); type: cell-based
# [8] = system: Desulfovibrionales (DSV687); assay: 3-stage gut model, flow-FISH enumeration, Desulfovibrionales; conditions: FIG. 6
# [9] = system: bacterial metabolites; assay: 3-stage gut model, metabolite spectra analysis by 1H NMR; conditions: V3 (distal colon)
# [10] = system: Roseburia spp. (Rrec584); assay: 3-stage gut model, flow-FISH enumeration, Roseburia; conditions: across V1, V2 and V3; not statistically significant
# [11] = system: Faecalibacterium prausnitzii; assay: 3-stage gut model, bacterial composition by 16s rRNA sequencing, F. prausnitzii; conditions: after treatment
# [12] = system: Eubacterium rectale (Erec482); assay: 3-stage gut model, flow-FISH enumeration, Eubacterium rectale; conditions: across V1, V2 and V3; not statistically significant
# [13] = system: Eubacterium rectale; assay: 3-stage gut model, bacterial composition by 16s rRNA sequencing, Eubacterium rectale; conditions: after treatment, proximal region of the colon; before 4%
# [14] = system: SCFAs acetate, propionate, butyrate and lactate; type: cell-based; conditions: preliminary results from one donor, FIG. 3
# [15] = system: Bifidobacterium spp. (Bif164); assay: 3-stage gut model, flow-FISH enumeration, Bifidobacterium
# [16] = system: Eubacterium eligens; assay: 3-stage gut model, bacterial composition by 16s rRNA sequencing, Eubacterium eligens; conditions: after treatment, 2% before
# [17] = system: Dialister pneumosintes; assay: 3-stage gut model, bacterial composition by 16s rRNA sequencing, Dialister pneumosintes; conditions: after treatment, before 7%
# [18] = system: total bacteria (EUB-I-II-III); assay: 3-stage gut model, flow-FISH enumeration, total bacteria; conditions: for total bacteria (EUB-I-II-III) after treatment: proximal region (V1), 400 mg/day, 512 h (SS2)
# [19] = system: Clostridium histolyticum (Chis150); assay: 3-stage gut model, flow-FISH enumeration, Clostridium histolyticum; type: cell-based; conditions: FIG. 6
# [20] = system: Bacteroides xylanisolvens; assay: 3-stage gut model, bacterial composition by 16s rRNA sequencing, Bacteroides xylanisolvens; conditions: after treatment, transverse region; 2% before
# [21] = system: Clostridium species; assay: 3-stage gut model, bacterial composition by 16s rRNA sequencing, Clostridium; type: cell-based; conditions: after treatment; from 5.6%
# [22] = system: Total bacteria; assay: Batch culture fermentation of faecal slurry, flow-FISH enumeration (Total); type: cell-based; conditions: 7-KLCA at 5 and 10 h, maltodextrin only at 5 h
# [23] = system: Atopobium-Coriobacterium; assay: Batch culture fermentation of faecal slurry, flow-FISH enumeration (ATO); type: cell-based
# [24] = system: Desulfovibrionales and Dessulfuromonadales; assay: Batch culture fermentation of faecal slurry, flow-FISH enumeration (DSV); type: cell-based
# [25] = HGD+7KLCA vs CTRL 3 (HGD), day 60
# [26] = normal diet 60 days, CTRL 2 vs CTRL 1
# [27] = V1, V2 and V3, not statistically significant
compound,measurement,setting,value
"C[C@H](CCC(=O)O)[C@H]1CC[C@H]2[C@@H]3C(=O)C[C@@H]4C[C@H](O)CC[C@]4(C)[C@H]3CC[C@]12C [7-KLCA, 3α-hydroxy-7-oxo-5β-cholanic acid]",toxicity,"[1]; 10 mg/kg, 60 days, oral gavage",no toxicity was observed
same,blood glucose levels,"[1]; HGD+7KLCA vs CTRL 3 (HGD), after 60 days",significantly lower
same,HDL cholesterol levels,[1]; [25],"slight, though not significant, increase"
same,LDL cholesterol levels,[1]; [25],significantly reduced
same,total cholesterol levels,[1]; [25],significantly reduced
same,weight gain,"[1]; after switch to HGD diet (days 30-60), 10 mg/kg/day, CTRL 3 gained significantly more",gained a similar amount of weight to the mice on the normal diet
same,weight gains,"[1]; initial 30-day period on standard diet, treated group vs CTRL 3",no significant difference
same,insulin levels,[1]; normal diet 30 days followed by HGD diet 30 days,trend of increased insulin levels
same,weight gains,"[1]; normal diet 60 days, 10 mg/kg oral gavage (CTRL 2) vs CTRL 1",no significant difference
same,blood glucose levels,[1]; [26],no significant difference
same,levels of HDL cholesterol,[1]; [26],no significant difference
same,levels of LDL cholesterol,[1]; [26],no significant difference
same,levels of total cholesterol,[1]; [26],no significant difference
same,increases in pathogenic Streptococcus,[2],no statistically significant increases
same,abundance of Bifidobacterium spp.,[3],5%
same,Bacteroides-Prevotella population numbers after treatment,[4]; distal region (V3),7.69±0.15 Log10 CFU/mL
same,Bacteroides-Prevotella (BAC303) population numbers after treatment,[4],8.47±0.24 Log10 CFU/mL
same,change in acetate concentration,"[5]; GC-MS, after treatment vs SS1",no statistically significant changes
same,change in butyrate concentration,"[5]; GC-MS, after treatment vs SS1",no statistically significant changes
same,change in valerate concentration,"[5]; GC-MS, after treatment vs SS1",no statistically significant changes
same,change in lactate concentration,[5]; [27],increases measured
same,change in propionate concentration,[5]; [27],increases measured
same,change in numbers of Faecalibacterium prausnitzii between baseline and after treatment,[6]; 7KLCA: V2 and V3,statistically significant increases
same,numbers of Faecalibacterium prausnitzii after treatment,"[6]; V2, baseline Log10 7.47±0.91 CFU/mL",8.81±0.09 Log10 CFU/mL
same,numbers of Faecalibacterium prausnitzii after treatment,"[6]; V3, baseline Log10 6.95±0.97 CFU/mL",8.39±0.22 Log10 CFU/mL
same,Bifidobacterium numbers,"[7]; at T5, vessels containing 7-KLCA and maltodextrin",7.45±0.16 Log10 CFU/mL
same,Bifidobacterium numbers,"[7]; at T10, vessels containing 7-KLCA and maltodextrin",7.55±0.21 Log10 CFU/mL
same,"change in Bifidobacterium spp. (BIF) numbers, statistical significance","[7]; batch culture, 7-KLCA at 5 and 10 h",statistically significant increases
same,Bifidobacterium numbers,"[7]; starting value (0 h), vessels containing 7-KLCA and maltodextrin",6.48±0.14 Log10 CFU/mL
same,increases in pathogenic Desulfovibrionales,[8],no statistically significant increases
same,alanine in 1H NMR spectrum,[9]; after treatment,detected
same,acetate peaks in 1H NMR spectrum,[9]; after vs before treatment,higher peaks
same,bacterial metabolite iso-leucine in 1H NMR spectrum,[9]; after vs before treatment,presence after treatment
same,bacterial metabolite leucine in 1H NMR spectrum,[9]; after vs before treatment,presence after treatment
same,propionate peaks in 1H NMR spectrum,[9]; after vs before treatment,higher peaks
same,peaks of butyrate in 1H NMR spectrum,[9]; after vs prior to treatment,greater
same,change in Roseburia spp. between baseline and after treatment,[10],increase
same,abundance of F. prausnitzii,"[11]; V3 (distal colon), from 0.6%",10%
same,abundance of Faecalibacterium prausnitzii,"[11]; proximal region of the colon (V1), before 4%",17%
same,"abundance of F. prausnitzii, of total bacterial composition",[11]; transverse region of the colon (V2),18%
same,change in Eubacterium rectale between baseline and after treatment,[12],increase
same,abundance of Eubacterium rectale,[13],18%
same,SCFA production (metabolic profile),[14],promoting beneficial SCFA production
same,"increase in Bifidobacterium spp. (Bif164) between Baseline and after treatment, statistical significance",[15]; 3-stage gut model,no statistically significant increases
same,observed change in Bifidobacterium spp. numbers after treatment,"[15]; across all three stages (V1, 2 and 3)",observed increase
same,Bifidobacterium spp. (Bif164) numbers after treatment,"[15]; transverse region, Baseline Log 10 7.54±1.06 CFU/mL",8.16±0.13 Log 10 CFU/mL
same,abundance of Eubacterium eligens,[16]; V1,2%
same,abundance of Eubacterium eligens,[16]; V2,5%
same,abundance of Eubacterium eligens,[16]; V3,2%
same,"Dialister pneumosintes, percentage of total bacteria composition",[17]; distal colon (V3),3%
same,"Dialister pneumosintes, percentage of total bacteria composition",[17]; transverse colon (V2),3%
same,numbers of total bacteria after treatment versus Baseline,"[18]; all three regions of the model, not significant",greater
same,total bacteria (EUB-I-II-III) after treatment,[18],9.35±0.16 Log10 CFU/mL
same,increases in pathogenic Clostridium histolyticum,[19],no statistically significant increases
same,abundance of Bacteroides xylanisolvens,[20],9%
same,"Clostridium species, of total bacterial species detected",[21],4.5%
same,"change in total bacteria, statistical significance",[22],statistically significant increases
same,"increases in pathogenic species Atopobium, Coriobacterium",[23],no increases
same,increases in pathogenic species Desulfovibrionales and Desulfuromonadales,[24],no increases
"C[C@H](CCC(=O)O)[C@H]1CC[C@H]2[C@@H]3[C@@H](O)C[C@@H]4C[C@H](O)CC[C@]4(C)[C@H]3CC[C@]12C [UDCA, ursodeoxycholic acid, reference compound]",Bacteroides-Prevotella (BAC303) population numbers after treatment,[4],6.94±0.33 Log10 CFU/mL
same,total bacteria (EUB-I-II-III) after treatment,[18],8.74±0.50 Log10 CFU/mL
